Patent US8557308B2, “Andrographis paniculata extract” (Nutrition Science Partners Limited, priority 2007, dated 2013)

Tested on: mildly to moderately active ulcerative colitis
Experiment: Randomized, double-dummy, active controlled 8-week clinical trial in ulcerative colitis
Type: in vivo, human
Details: week 8
Experimental: 120 patients with colonoscopy-confirmed mildly to moderately active ulcerative colitis were assigned to two groups (60 patients/group). […] All other medications were excluded. The therapeutic effects were assessed biweekly using a scale similar to the partial Mayo Scoring System, and the clinical symptom score reduction (≧50% reduction in symptoms) was calculated. Scores were then retrospectively calculated using the standard partial Mayo scores (PMS), clinical response (improvement ≧2 points or final score of 0) and remission (≦1 PMS score at week 8). Colonoscopies at the beginning and at the end of treatment were rated with a modified Baron score, and biopsies taken during colonoscopy were graded histologically with a scale of 0-3.

For `Nc1ccc(O)c(C(=O)O)c1` [Etiasa, 5-amino-2-hydroxybenzoic acid], the “patients with Baron scores reduced by at least two grades” value (colonoscopy) was 42% and the “clinical response rate (partial Mayo score improvement ≧2 points or final score of 0)” value was 58%.
